Data reported in PubChem BioAssay (NCI).
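Abbreviation: GI50, concentration required for 50% inhibition of growth. TGI is the concentration that stops growth completely.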

Experiments:
Experiment in all cases: NCI anticancer screen, dose series, 384-well format
786-0 renal = tested on: 786-0 renal
A498 renal = tested on: A498 renal
A549 NSCLC = tested on: A549 NSCLC
ACHN renal = tested on: ACHN renal
BT-549 breast = tested on: BT-549 breast
CAKI-1 renal = tested on: CAKI-1 renal
CCRF-CEM leukemia = tested on: CCRF-CEM leukemia
COLO 205 colon = tested on: COLO 205 colon
DU-145 prostate = tested on: DU-145 prostate
HCC-2998 colon = tested on: HCC-2998 colon
HCT-15 colon = tested on: HCT-15 colon
HL-60(TB) leukemia = tested on: HL-60(TB) leukemia
HOP-62 NSCLC = tested on: HOP-62 NSCLC
HOP-92 NSCLC = tested on: HOP-92 NSCLC
HS 578T breast = tested on: HS 578T breast
HT29 colon = tested on: HT29 colon
IGROV1 ovarian = tested on: IGROV1 ovarian
K-562 leukemia = tested on: K-562 leukemia
KM12 colon = tested on: KM12 colon
LOX IMVI melanoma = tested on: LOX IMVI melanoma
M14 melanoma = tested on: M14 melanoma
MALME-3M melanoma = tested on: MALME-3M melanoma
MCF7 breast = tested on: MCF7 breast
MDA-MB-231 breast = tested on: MDA-MB-231 breast
MDA-MB-435 melanoma = tested on: MDA-MB-435 melanoma
MDA-MB-468 breast = tested on: MDA-MB-468 breast
MOLT-4 leukemia = tested on: MOLT-4 leukemia
NCI-H226 lung = tested on: NCI-H226 lung
NCI-H23 lung = tested on: NCI-H23 lung
NCI-H322M lung = tested on: NCI-H322M lung
NCI-H460 NSCLC = tested on: NCI-H460 NSCLC
NCI-H522 lung = tested on: NCI-H522 lung
NCI/ADR-RES ovarian = tested on: NCI/ADR-RES ovarian
OVCAR-3 ovarian = tested on: OVCAR-3 ovarian
OVCAR-4 ovarian = tested on: OVCAR-4 ovarian
OVCAR-5 ovarian = tested on: OVCAR-5 ovarian
OVCAR-8 ovarian = tested on: OVCAR-8 ovarian
PC-3 prostate = tested on: PC-3 prostate
RPMI-8226 leukemia = tested on: RPMI-8226 leukemia
RXF 393 renal = tested on: RXF 393 renal
SF-268 CNS = tested on: SF-268 CNS
SF-295 CNS = tested on: SF-295 CNS
SF-539 CNS = tested on: SF-539 CNS
SK-MEL-28 melanoma = tested on: SK-MEL-28 melanoma
SK-MEL-5 melanoma = tested on: SK-MEL-5 melanoma
SK-OV-3 ovarian = tested on: SK-OV-3 ovarian
SN12C renal = tested on: SN12C renal
SNB-19 CNS = tested on: SNB-19 CNS
SNB-75 CNS = tested on: SNB-75 CNS
SR leukemia = tested on: SR leukemia
SW-620 colon = tested on: SW-620 colon
T-47D breast = tested on: T-47D breast
TK-10 renal = tested on: TK-10 renal
U251 glioblastoma = tested on: U251 glioblastoma
UACC-62 melanoma = tested on: UACC-62 melanoma
UO-31 renal = tested on: UO-31 renal

Q: How did the GI50 ([…]-0 renal) turn out when `Cc1cc2c(F)c(Oc3ncnn4cc(OC[C@@H](C)OC(=O)[C@H](C)N)c(C)c34)ccc2[nH]1` was run?
A: Its GI50 is 3.54 µM.

Q: What about the GI50 (A498 renal) of the same molecule?
A: The GI50 was 5.04 µM.

Q: What about the GI50 (A549 NSCLC) of the same molecule?
A: Its GI50 is 4.99 µM.

Q: What about the TGI (A549 NSCLC) of the same molecule?
A: Its TGI is 17.7 µM.

Q: And the GI50 (ACHN renal)?
A: The GI50 was 2.97 µM.

Q: What about the GI50 (BT-549 breast) of the same molecule?
A: Its GI50 is 3.65 µM.

Q: And the TGI (BT-549 breast)?
A: Its TGI is 15.3 µM.

Q: And the GI50 (CAKI-1 renal)?
A: Its GI50 is 3.65 µM.

Q: And the TGI (CAKI-1 renal)?
A: Its TGI is 16.4 µM.

Q: And the GI50 (CCRF-CEM leukemia)?
A: Its GI50 is 1.84 µM.

Q: And the TGI (CCRF-CEM leukemia)?
A: The TGI was 6.14 µM.

Q: And the GI50 (COLO 205 colon)?
A: The GI50 was 0.847 µM.

Q: And the TGI (COLO 205 colon)?
A: The TGI was 12.7 µM.

Q: And the GI50 (DU-145 prostate)?
A: The GI50 was 3.74 µM.

Q: What about the GI50 (HCC-2998 colon) of the same molecule?
A: The GI50 was 3.59 µM.

Q: What about the GI50 (HCT-15 colon) of the same molecule?
A: Its GI50 is 0.914 µM.

Q: And the TGI (HCT-15 colon)?
A: Its TGI is 3.46 µM.

Q: And the GI50 (HL-60(TB) leukemia)?
A: The GI50 was 1.04 µM.

Q: What about the TGI (HL-60(TB) leukemia) of the same molecule?
A: Its TGI is 3.2 µM.

Q: And the GI50 (HOP-62 NSCLC)?
A: Its GI50 is 6.64 µM.

Q: What about the TGI (HOP-62 NSCLC) of the same molecule?
A: Its TGI is 20.3 µM.

Q: What about the GI50 (HOP-92 NSCLC) of the same molecule?
A: Its GI50 is 4.17 µM.

Q: And the TGI (HOP-92 NSCLC)?
A: Its TGI is 17.3 µM.

Q: And the GI50 (HS 578T breast)?
A: The GI50 was 6.21 µM.

Q: What about the TGI (HS 578T breast) of the same molecule?
A: The TGI was 17.7 µM.

Q: What about the GI50 (HT29 colon) of the same molecule?
A: Its GI50 is 2.77 µM.

Q: And the TGI (HT29 colon)?
A: The TGI was 12 µM.

Q: What about the GI50 (IGROV1 ovarian) of the same molecule?
A: Its GI50 is 4.71 µM.

Q: And the GI50 (K-562 leukemia)?
A: Its GI50 is 1.04 µM.

Q: And the TGI (K-562 leukemia)?
A: The TGI was 3.18 µM.

Q: What about the GI50 (KM12 colon) of the same molecule?
A: Its GI50 is 3.17 µM.

Q: And the TGI (KM12 colon)?
A: Its TGI is 13.8 µM.

Q: What about the GI50 (LOX IMVI melanoma) of the same molecule?
A: The GI50 was 1.43 µM.

Q: And the TGI (LOX IMVI melanoma)?
A: Its TGI is 3.81 µM.

Q: And the GI50 (M14 melanoma)?
A: The GI50 was 4.9 µM.

Q: What about the TGI (M14 melanoma) of the same molecule?
A: The TGI was 17.4 µM.

Q: What about the GI50 (MALME-3M melanoma) of the same molecule?
A: Its GI50 is 2.07 µM.

Q: What about the TGI (MALME-3M melanoma) of the same molecule?
A: Its TGI is 12.5 µM.

Q: And the GI50 (MCF7 breast)?
A: The GI50 was 3.45 µM.

Q: What about the TGI (MCF7 breast) of the same molecule?
A: The TGI was 16.7 µM.

Q: And the GI50 (MDA-MB-231 breast)?
A: Its GI50 is 1.82 µM.

Q: What about the TGI (MDA-MB-231 breast) of the same molecule?
A: The TGI was 18.2 µM.

Q: And the GI50 (MDA-MB-435 melanoma)?
A: The GI50 was 7.77 µM.

Q: And the GI50 (MDA-MB-468 breast)?
A: The GI50 was 2.16 µM.

Q: What about the TGI (MDA-MB-468 breast) of the same molecule?
A: Its TGI is 5.55 µM.

Q: What about the GI50 (MOLT-4 leukemia) of the same molecule?
A: Its GI50 is 0.272 µM.

Q: And the TGI (MOLT-4 leukemia)?
A: Its TGI is 0.612 µM.

Q: And the GI50 (NCI-H226 lung)?
A: Its GI50 is 4.33 µM.

Q: What about the TGI (NCI-H226 lung) of the same molecule?
A: The TGI was 18 µM.

Q: And the GI50 (NCI-H23 lung)?
A: Its GI50 is 10.1 µM.

Q: And the TGI (NCI-H23 lung)?
A: Its TGI is 21.7 µM.

Q: What about the GI50 (NCI-H322M lung) of the same molecule?
A: The GI50 was 7.3 µM.

Q: And the TGI (NCI-H322M lung)?
A: The TGI was 19.7 µM.

Q: What about the GI50 (NCI-H460 NSCLC) of the same molecule?
A: The GI50 was 0.643 µM.

Q: And the TGI (NCI-H460 NSCLC)?
A: Its TGI is 4.37 µM.

Q: What about the GI50 (NCI-H522 lung) of the same molecule?
A: Its GI50 is 4.57 µM.

Q: What about the GI50 (NCI/ADR-RES ovarian) of the same molecule?
A: The GI50 was 3.52 µM.

Q: What about the GI50 (OVCAR-3 ovarian) of the same molecule?
A: Its GI50 is 6.03 µM.

Q: What about the GI50 (OVCAR-4 ovarian) of the same molecule?
A: The GI50 was 7.98 µM.

Q: And the GI50 (OVCAR-5 ovarian)?
A: The GI50 was 8.29 µM.

Q: What about the GI50 (OVCAR-8 ovarian) of the same molecule?
A: The GI50 was 4.41 µM.

Q: What about the TGI (OVCAR-8 ovarian) of the same molecule?
A: Its TGI is 17.2 µM.

Q: What about the GI50 (PC-3 prostate) of the same molecule?
A: Its GI50 is 3.17 µM.

Q: And the GI50 (RPMI-8226 leukemia)?
A: Its GI50 is 0.467 µM.

Q: What about the TGI (RPMI-8226 leukemia) of the same molecule?
A: The TGI was 1.94 µM.

Q: What about the GI50 (RXF 393 renal) of the same molecule?
A: The GI50 was 3.75 µM.

Q: And the TGI (RXF 393 renal)?
A: Its TGI is 14.2 µM.

Q: What about the GI50 (SF-268 CNS) of the same molecule?
A: The GI50 was 3.4 µM.

Q: And the TGI (SF-268 CNS)?
A: Its TGI is 16.8 µM.

Q: What about the GI50 (SF-295 CNS) of the same molecule?
A: Its GI50 is 3.24 µM.

Q: What about the TGI (SF-295 CNS) of the same molecule?
A: The TGI was 12.8 µM.

Q: What about the GI50 (SF-539 CNS) of the same molecule?
A: Its GI50 is 2.25 µM.

Q: And the TGI (SF-539 CNS)?
A: Its TGI is 10.9 µM.

Q: And the GI50 (SK-MEL-28 melanoma)?
A: The GI50 was 3.29 µM.

Q: What about the TGI (SK-MEL-28 melanoma) of the same molecule?
A: Its TGI is 17.5 µM.

Q: What about the GI50 (SK-MEL-5 melanoma) of the same molecule?
A: The GI50 was 0.984 µM.

Q: And the GI50 (SK-OV-3 ovarian)?
A: Its GI50 is 5.13 µM.

Q: What about the GI50 (SN12C renal) of the same molecule?
A: The GI50 was 4.53 µM.

Q: And the GI50 (SNB-19 CNS)?
A: Its GI50 is 5.13 µM.

Q: And the GI50 (SNB-75 CNS)?
A: Its GI50 is 4.41 µM.

Q: And the TGI (SNB-75 CNS)?
A: Its TGI is 17.1 µM.

Q: What about the GI50 (SR leukemia) of the same molecule?
A: Its GI50 is 0.0548 µM.

Q: And the TGI (SR leukemia)?
A: Its TGI is 0.241 µM.

Q: And the GI50 (SW-620 colon)?
A: The GI50 was 4.96 µM.

Q: And the TGI (SW-620 colon)?
A: Its TGI is 17.7 µM.

Q: What about the GI50 (T-47D breast) of the same molecule?
A: The GI50 was 3.34 µM.

Q: What about the GI50 (TK-10 renal) of the same molecule?
A: The GI50 was 2.27 µM.

Q: And the GI50 (U251 glioblastoma)?
A: Its GI50 is 3.67 µM.

Q: What about the GI50 (UACC-62 melanoma) of the same molecule?
A: The GI50 was 3.13 µM.

Q: What about the TGI (UACC-62 melanoma) of the same molecule?
A: Its TGI is 17.5 µM.

Q: What about the GI50 (UO-31 renal) of the same molecule?
A: Its GI50 is 6.25 µM.
